Columns and labels:
physchem = details: n-octanol/water
Description: n-Octanol-water partition coefficient, log P of the compound

Rattus norvegicus [1] = species on record: Rattus norvegicus; assay: animal or person; details: Wistar, po, read-out: INH
Rattus norvegicus [2] = species on record: Rattus norvegicus; assay: animal or person; details: Wistar, po, read-out: INH; remark: listed apart in the source
Rattus norvegicus [3] = species on record: Rattus norvegicus; details: in vivo, po, 10 mg/kg, 17 h
Mus musculus = species on record: Mus musculus; assay: animal or person; details: Swiss, po, 3 h, read-out: INH

## Cc1ccc(C(=O)Nc2ccccc2C(=O)N/N=C/c2ccccc2)cc1
physchem
  logP: 4.61
Rattus norvegicus [1]
  inhibition in vivo at 10 mg/kg: 15.2%
Rattus norvegicus [2]
  inhibition in vivo at 10 mg/kg: 15.9%

## Cc1ccc(C(=O)Nc2ccccc2C(=O)N/N=C/c2ccc(O)cc2)cc1
physchem
  logP: 4.14
Rattus norvegicus [1]
  inhibition in vivo at 10 mg/kg: 19.5%
Rattus norvegicus [2]
  inhibition in vivo at 10 mg/kg: 23.3%

## Cc1ccc(C(=O)Nc2ccccc2C(=O)N/N=C/c2ccc(O)c(O)c2)cc1
physchem
  logP: 4.02
Rattus norvegicus [3]
  UI: 1.417
Mus musculus
  inhibition in vivo at 10 mg/kg: 77.8%
Rattus norvegicus [1]
  inhibition in vivo at 10 mg/kg: 55.3%
Rattus norvegicus [2]
  inhibition in vivo at 10 mg/kg: 55.1%

## COc1cc(/C=N/NC(=O)c2ccccc2NC(=O)c2ccc(C)cc2)ccc1O
physchem
  logP: 4.1
Rattus norvegicus [1]
  inhibition in vivo at 10 mg/kg: 19.5%
Rattus norvegicus [2]
  inhibition in vivo at 10 mg/kg: 23.3%

## Cc1ccc(C(=O)Nc2ccccc2C(=O)N/N=C/c2ccc(Cl)cc2Cl)cc1
physchem
  logP: 6.12
Rattus norvegicus [1]
  inhibition in vivo at 10 mg/kg: 0.35%
Rattus norvegicus [2]
  inhibition in vivo at 10 mg/kg: 1.06%

## COc1ccc(/C=N/NC(=O)c2ccccc2NC(=O)c2ccc(C)cc2)cc1
physchem
  logP: 4.66
Rattus norvegicus [1]
  inhibition in vivo at 10 mg/kg: 19.3%
Rattus norvegicus [2]
  inhibition in vivo at 10 mg/kg: 22.6%

## COc1cc(OC)c(OC)cc1/C=N/NC(=O)c1ccccc1NC(=O)c1ccc(C)cc1
physchem
  logP: 4.23
Rattus norvegicus [3]
  UI: 1.75
Mus musculus
  inhibition in vivo at 10 mg/kg: 46.2%
Rattus norvegicus [1]
  inhibition in vivo at 10 mg/kg: 62.4%
Rattus norvegicus [2]
  inhibition in vivo at 10 mg/kg: 62.2%

## COc1cc(/C=N/NC(=O)c2ccccc2NC(=O)c2ccc(C)cc2)cc(OC)c1OC
physchem
  logP: 4.63
Rattus norvegicus [3]
  UI: 1.583
Mus musculus
  inhibition in vivo at 10 mg/kg: 34.2%
Rattus norvegicus [1]
  inhibition in vivo at 10 mg/kg: 62.8%
Rattus norvegicus [2]
  inhibition in vivo at 10 mg/kg: 64.3%

## COc1cc(OC)c(/C=N/NC(=O)c2ccccc2NC(=O)c2ccc(C)cc2)c(OC)c1
physchem
  logP: 4.87
Rattus norvegicus [1]
  inhibition in vivo at 10 mg/kg: 13.1%
Rattus norvegicus [2]
  inhibition in vivo at 10 mg/kg: 14.5%

## Cc1ccc(C(=O)Nc2ccccc2C(=O)N/N=C/c2ccc(N(C)C)cc2)cc1
physchem
  logP: 4.41
Rattus norvegicus [1]
  inhibition in vivo at 10 mg/kg: 22.3%
Rattus norvegicus [2]
  inhibition in vivo at 10 mg/kg: 22.3%

— ChEMBL document CHEMBL3414520, “Synthesis, analgesic, anti-inflammatory and anti-ulcerogenic activities of certain novel Schiff's bases as fenamate isosteres” (Bioorg Med Chem Lett, 2015)
